Data: publication PMC9532703, “A novel small molecule RK-019 inhibits FGFR2-amplification gastric cancer cell proliferation and induces apoptosis in vitro and in vivo” (Frontiers in Pharmacology, 2022)

Key:
Assay in all cases: Kinase selectivity panel
Assay type in all cases: biochemical
[1] = target: T1, TrkB(h) (Homo sapiens, UniProt Q16620); conditions: read-out: Inhibition(%) @ 1 µM RK-019
T1 construct: purchased Eurofins Discovery Services (KinaseProfiler)
How it was run: (§1)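 Selectivity profiling used one concentration (1 µM) in an ATP-site competition binding assay over 422 recombinant human kinases; data given as inhibition ratio.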

[2] = target: T2, EphA4(h) (Homo sapiens, UniProt P54764); conditions: read-out: Inhibition(%) @ 1 µM RK-019
T2 construct: purchased Eurofins Discovery Services (KinaseProfiler)
How it was run: as §1

[3] = target: T3, BRK(h) (Homo sapiens, UniProt Q13882); conditions: read-out: Inhibition(%) @ 1 µM RK-019
T3 construct: purchased Eurofins Discovery Services (KinaseProfiler)
How it was run: as §1

[4] = target: T4, BTK(R28H)(h) (Homo sapiens, UniProt Q06187, R28H); conditions: read-out: Inhibition(%) @ 1 µM RK-019
T4 construct: purchased Eurofins Discovery Services (KinaseProfiler)
T4 sequence (Q06187 whole entry R28H): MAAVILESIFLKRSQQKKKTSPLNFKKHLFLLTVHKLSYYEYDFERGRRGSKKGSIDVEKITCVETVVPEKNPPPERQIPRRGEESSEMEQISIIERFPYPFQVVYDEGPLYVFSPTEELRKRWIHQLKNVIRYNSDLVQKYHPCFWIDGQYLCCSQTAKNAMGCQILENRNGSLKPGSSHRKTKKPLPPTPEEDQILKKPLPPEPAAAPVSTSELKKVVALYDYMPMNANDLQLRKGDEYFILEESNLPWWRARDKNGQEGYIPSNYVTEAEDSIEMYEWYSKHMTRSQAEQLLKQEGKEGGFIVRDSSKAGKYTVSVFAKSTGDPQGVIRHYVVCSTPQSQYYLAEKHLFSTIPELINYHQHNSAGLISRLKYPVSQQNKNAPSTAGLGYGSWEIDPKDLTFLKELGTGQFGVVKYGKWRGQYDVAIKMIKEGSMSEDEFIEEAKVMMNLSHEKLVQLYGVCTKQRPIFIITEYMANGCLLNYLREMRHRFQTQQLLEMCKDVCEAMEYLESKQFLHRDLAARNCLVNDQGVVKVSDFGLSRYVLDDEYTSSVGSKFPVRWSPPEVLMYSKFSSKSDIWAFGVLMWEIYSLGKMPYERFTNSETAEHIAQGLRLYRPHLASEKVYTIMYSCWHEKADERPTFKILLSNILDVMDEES
How it was run: as §1

[5] = target: T5, TLK2(h) (Homo sapiens, UniProt Q86UE8); conditions: read-out: Inhibition(%) @ 1 µM RK-019
T5 construct: purchased Eurofins Discovery Services (KinaseProfiler)
T5 sequence (Q86UE8 whole entry): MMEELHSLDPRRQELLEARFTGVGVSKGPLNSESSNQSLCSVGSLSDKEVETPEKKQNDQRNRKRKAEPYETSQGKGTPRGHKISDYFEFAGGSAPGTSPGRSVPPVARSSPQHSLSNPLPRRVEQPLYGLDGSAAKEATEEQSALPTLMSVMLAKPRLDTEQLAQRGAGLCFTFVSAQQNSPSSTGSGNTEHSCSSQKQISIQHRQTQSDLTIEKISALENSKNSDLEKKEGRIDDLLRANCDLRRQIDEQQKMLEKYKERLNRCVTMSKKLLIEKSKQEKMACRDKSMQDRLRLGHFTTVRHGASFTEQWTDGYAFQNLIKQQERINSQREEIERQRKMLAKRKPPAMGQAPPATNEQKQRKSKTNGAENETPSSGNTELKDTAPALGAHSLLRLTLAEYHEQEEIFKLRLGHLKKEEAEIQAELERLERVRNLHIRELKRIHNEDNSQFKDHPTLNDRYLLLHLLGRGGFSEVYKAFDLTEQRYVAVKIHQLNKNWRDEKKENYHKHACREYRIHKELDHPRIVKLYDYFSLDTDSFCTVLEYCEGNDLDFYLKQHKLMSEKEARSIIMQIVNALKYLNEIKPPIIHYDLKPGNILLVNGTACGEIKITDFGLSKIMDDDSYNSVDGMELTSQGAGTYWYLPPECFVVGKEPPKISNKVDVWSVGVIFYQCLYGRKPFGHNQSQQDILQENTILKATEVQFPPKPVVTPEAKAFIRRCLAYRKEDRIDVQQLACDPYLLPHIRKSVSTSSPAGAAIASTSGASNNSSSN
How it was run: as §1

[6] = target: T6, SAPK2a(T106M)(h) (Homo sapiens, UniProt Q16539, T106M); conditions: read-out: Inhibition(%) @ 1 µM RK-019
T6 construct: purchased Eurofins Discovery Services (KinaseProfiler)
How it was run: as §1

[7] = target: T7, MLK1(h) (Homo sapiens, UniProt P80192); conditions: read-out: Inhibition(%) @ 1 µM RK-019
T7 construct: purchased Eurofins Discovery Services (KinaseProfiler)
How it was run: as §1

[8] = target: T8, MKK4(m) (Mus musculus, UniProt P47809); conditions: read-out: Inhibition(%) @ 1 µM RK-019
T8 construct: purchased Eurofins Discovery Services (KinaseProfiler)
T8 sequence (P47809 2-397 limits assumed): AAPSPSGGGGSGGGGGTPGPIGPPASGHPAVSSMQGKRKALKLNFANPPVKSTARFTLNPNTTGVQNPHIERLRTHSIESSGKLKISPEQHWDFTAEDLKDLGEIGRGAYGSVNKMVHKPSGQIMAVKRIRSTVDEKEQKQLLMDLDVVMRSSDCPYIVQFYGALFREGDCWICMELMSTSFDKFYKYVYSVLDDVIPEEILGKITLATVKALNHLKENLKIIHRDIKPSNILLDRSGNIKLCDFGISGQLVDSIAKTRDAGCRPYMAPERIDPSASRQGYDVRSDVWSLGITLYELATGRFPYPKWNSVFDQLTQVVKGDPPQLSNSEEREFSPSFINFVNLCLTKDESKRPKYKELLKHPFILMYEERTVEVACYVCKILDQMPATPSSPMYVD

[9] = target: T9, JNK1α1(h) (Homo sapiens, UniProt P45983); conditions: read-out: Inhibition(%) @ 1 µM RK-019
T9 construct: purchased Eurofins Discovery Services (KinaseProfiler)
How it was run: as §1

[10] = target: T10, TAO2(h) (Homo sapiens, UniProt Q9UL54); conditions: read-out: Inhibition(%) @ 1 µM RK-019
T10 construct: purchased Eurofins Discovery Services (KinaseProfiler)
How it was run: as §1

[11] = target: T11, ULK1(h) (Homo sapiens, UniProt O75385); conditions: read-out: Inhibition(%) @ 1 µM RK-019
T11 construct: purchased Eurofins Discovery Services (KinaseProfiler)
How it was run: as §1

[12] = target: T12, TGFBR2(h) (Homo sapiens, UniProt P37173); conditions: read-out: Inhibition(%) @ 1 µM RK-019
T12 construct: purchased Eurofins Discovery Services (KinaseProfiler)
How it was run: as §1

[13] = target: T13, PKA(h) (Homo sapiens, UniProt P17612); conditions: read-out: Inhibition(%) @ 1 µM RK-019
T13 construct: purchased Eurofins Discovery Services (KinaseProfiler)
How it was run: as §1

[14] = target: T14, TRB2(h) (Homo sapiens, UniProt Q92519); conditions: read-out: Inhibition(%) @ 1 µM RK-019
T14 construct: purchased Eurofins Discovery Services (KinaseProfiler)
How it was run: as §1

[15] = target: T15, Lyn(h) (Homo sapiens, UniProt P07948)
T15 construct: purchased Eurofins Discovery Services (KinaseProfiler)
T15 sequence (P07948 whole entry): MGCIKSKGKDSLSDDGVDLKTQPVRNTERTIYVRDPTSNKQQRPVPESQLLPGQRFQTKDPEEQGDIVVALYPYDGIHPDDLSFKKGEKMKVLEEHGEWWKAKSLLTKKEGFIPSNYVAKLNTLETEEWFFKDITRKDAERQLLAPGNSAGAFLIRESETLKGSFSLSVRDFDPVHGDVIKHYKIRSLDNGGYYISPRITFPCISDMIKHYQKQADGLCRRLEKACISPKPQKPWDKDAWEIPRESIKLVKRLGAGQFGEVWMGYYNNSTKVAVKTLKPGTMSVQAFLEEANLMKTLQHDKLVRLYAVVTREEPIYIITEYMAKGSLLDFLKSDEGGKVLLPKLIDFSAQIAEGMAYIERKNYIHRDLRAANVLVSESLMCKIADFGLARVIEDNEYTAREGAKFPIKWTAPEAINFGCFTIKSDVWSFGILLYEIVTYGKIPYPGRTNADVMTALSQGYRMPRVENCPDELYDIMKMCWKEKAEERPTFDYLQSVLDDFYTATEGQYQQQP
How it was run: as §1

[16] = target: T16, PKCζ(h) (Homo sapiens, UniProt Q05513); conditions: read-out: Inhibition(%) @ 1 µM RK-019
T16 construct: purchased Eurofins Discovery Services (KinaseProfiler)
How it was run: as §1

[17] = target: T17, Pim-1(h) (Homo sapiens, UniProt P11309); conditions: read-out: Inhibition(%) @ 1 µM RK-019
T17 construct: purchased Eurofins Discovery Services (KinaseProfiler)
How it was run: as §1

[18] = target: T18, CaMKIIδ(h) (Homo sapiens, UniProt Q13557); conditions: read-out: Inhibition(%) @ 1 µM RK-019
T18 construct: purchased Eurofins Discovery Services (KinaseProfiler)
T18 sequence (Q13557 whole entry): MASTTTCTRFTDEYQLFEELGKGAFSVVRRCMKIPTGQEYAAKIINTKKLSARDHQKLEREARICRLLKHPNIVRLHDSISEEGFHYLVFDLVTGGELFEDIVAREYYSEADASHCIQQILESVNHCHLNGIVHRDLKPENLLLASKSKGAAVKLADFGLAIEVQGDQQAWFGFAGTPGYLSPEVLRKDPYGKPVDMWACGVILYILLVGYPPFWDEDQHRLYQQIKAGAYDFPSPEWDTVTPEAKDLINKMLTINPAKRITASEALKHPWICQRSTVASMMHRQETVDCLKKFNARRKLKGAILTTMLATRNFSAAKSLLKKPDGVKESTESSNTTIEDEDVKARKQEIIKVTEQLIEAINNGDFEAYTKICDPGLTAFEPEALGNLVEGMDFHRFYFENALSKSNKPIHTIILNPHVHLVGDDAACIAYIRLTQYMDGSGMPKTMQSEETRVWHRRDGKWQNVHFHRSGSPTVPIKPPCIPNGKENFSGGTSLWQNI
How it was run: as §1

[19] = target: T19, DRAK1(h) (Homo sapiens, UniProt Q9UEE5); conditions: read-out: Inhibition(%) @ 1 µM RK-019
T19 construct: purchased Eurofins Discovery Services (KinaseProfiler)
How it was run: as §1

[20] = target: T20, Plk1(h) (Homo sapiens, UniProt P53350); conditions: read-out: Inhibition(%) @ 1 µM RK-019
T20 construct: purchased Eurofins Discovery Services (KinaseProfiler)
T20 sequence (P53350 whole entry): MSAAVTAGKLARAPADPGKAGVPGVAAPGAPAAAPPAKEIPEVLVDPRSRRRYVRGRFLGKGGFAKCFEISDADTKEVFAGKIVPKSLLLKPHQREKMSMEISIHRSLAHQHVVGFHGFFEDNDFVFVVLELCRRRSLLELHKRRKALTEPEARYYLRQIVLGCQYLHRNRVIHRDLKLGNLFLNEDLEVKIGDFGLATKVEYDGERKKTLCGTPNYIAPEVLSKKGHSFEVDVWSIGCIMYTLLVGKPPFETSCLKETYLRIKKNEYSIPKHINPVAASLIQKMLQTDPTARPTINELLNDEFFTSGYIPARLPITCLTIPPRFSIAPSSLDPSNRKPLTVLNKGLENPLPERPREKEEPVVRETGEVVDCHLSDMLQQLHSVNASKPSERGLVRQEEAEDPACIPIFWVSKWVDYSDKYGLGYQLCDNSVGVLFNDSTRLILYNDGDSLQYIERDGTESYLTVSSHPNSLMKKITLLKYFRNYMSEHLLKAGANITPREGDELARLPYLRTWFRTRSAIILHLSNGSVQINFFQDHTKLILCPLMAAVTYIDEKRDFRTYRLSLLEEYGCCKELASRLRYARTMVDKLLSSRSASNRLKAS
How it was run: as §1

[21] = target: T21, TGFBR1(h) (Homo sapiens, UniProt P36897); conditions: read-out: Inhibition(%) @ 1 µM RK-019
T21 construct: purchased Eurofins Discovery Services (KinaseProfiler)
T21 sequence (P36897 34-503): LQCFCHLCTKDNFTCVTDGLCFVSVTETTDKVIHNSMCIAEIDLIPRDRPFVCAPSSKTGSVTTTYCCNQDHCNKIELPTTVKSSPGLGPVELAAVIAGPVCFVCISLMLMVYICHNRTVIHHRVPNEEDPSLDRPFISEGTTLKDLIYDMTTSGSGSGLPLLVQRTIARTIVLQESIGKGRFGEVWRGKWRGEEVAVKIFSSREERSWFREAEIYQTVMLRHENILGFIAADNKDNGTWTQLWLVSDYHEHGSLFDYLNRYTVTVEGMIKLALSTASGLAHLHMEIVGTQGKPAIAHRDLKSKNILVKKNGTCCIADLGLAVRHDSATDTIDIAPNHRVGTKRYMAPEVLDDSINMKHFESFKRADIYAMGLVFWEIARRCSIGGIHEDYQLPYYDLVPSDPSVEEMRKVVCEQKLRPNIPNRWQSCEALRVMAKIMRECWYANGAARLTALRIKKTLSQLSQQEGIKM
How it was run: as §1

[22] = target: T22, PKG1α(h) (Homo sapiens, UniProt Q13976); conditions: read-out: Inhibition(%) @ 1 µM RK-019
T22 construct: purchased Eurofins Discovery Services (KinaseProfiler)
How it was run: as §1

[23] = target: T23, PDGFRα(h) (Homo sapiens, UniProt P16234); conditions: read-out: Inhibition(%) @ 1 µM RK-019
T23 construct: purchased Eurofins Discovery Services (KinaseProfiler)
How it was run: as §1

[24] = target: T24, GRK1(h) (Homo sapiens, UniProt Q15835); conditions: read-out: Inhibition(%) @ 1 µM RK-019
T24 construct: purchased Eurofins Discovery Services (KinaseProfiler)
How it was run: as §1

[25] = target: T25, Met(D1246N)(h) (Homo sapiens, UniProt P08581, D1228N); conditions: read-out: Inhibition(%) @ 1 µM RK-019
T25 construct: purchased Eurofins Discovery Services (KinaseProfiler)
How it was run: as §1

[26] = target: T26, Lck(h) (Homo sapiens, UniProt P06239); conditions: read-out: Inhibition(%) @ 1 µM RK-019
T26 construct: purchased Eurofins Discovery Services (KinaseProfiler)
T26 sequence (P06239 whole entry): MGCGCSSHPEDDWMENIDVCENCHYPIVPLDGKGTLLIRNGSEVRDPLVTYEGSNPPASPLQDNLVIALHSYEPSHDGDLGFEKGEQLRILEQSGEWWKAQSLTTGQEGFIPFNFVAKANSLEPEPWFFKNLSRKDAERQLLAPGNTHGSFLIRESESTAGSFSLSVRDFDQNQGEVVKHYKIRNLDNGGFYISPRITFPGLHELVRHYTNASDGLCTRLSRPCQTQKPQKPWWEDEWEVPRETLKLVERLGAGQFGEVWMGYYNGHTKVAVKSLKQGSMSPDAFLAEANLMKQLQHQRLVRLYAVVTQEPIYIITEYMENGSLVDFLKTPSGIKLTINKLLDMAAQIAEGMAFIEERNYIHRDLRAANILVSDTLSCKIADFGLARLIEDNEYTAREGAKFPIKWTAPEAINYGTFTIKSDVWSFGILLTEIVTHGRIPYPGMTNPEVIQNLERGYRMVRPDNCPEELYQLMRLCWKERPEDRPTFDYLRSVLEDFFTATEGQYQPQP
How it was run: as §1

[27] = target: T27, ACTR2(h) (Homo sapiens, UniProt P27037); conditions: read-out: Inhibition(%) @ 1 µM RK-019
T27 construct: purchased Eurofins Discovery Services (KinaseProfiler)
How it was run: as §1

[28] = target: T28, PKCθ(h) (Homo sapiens, UniProt Q04759); conditions: read-out: Inhibition(%) @ 1 µM RK-019
T28 construct: purchased Eurofins Discovery Services (KinaseProfiler)
How it was run: as §1

[29] = target: T29, CDK7/cyclinH/MAT1(h) (Homo sapiens, UniProt P50613); conditions: read-out: Inhibition(%) @ 1 µM RK-019
T29 construct: purchased Eurofins Discovery Services (KinaseProfiler)
How it was run: as §1

[30] = target: T30, PKCι(h) (Homo sapiens, UniProt P41743); conditions: read-out: Inhibition(%) @ 1 µM RK-019
T30 construct: purchased Eurofins Discovery Services (KinaseProfiler)
T30 sequence (P41743 whole entry): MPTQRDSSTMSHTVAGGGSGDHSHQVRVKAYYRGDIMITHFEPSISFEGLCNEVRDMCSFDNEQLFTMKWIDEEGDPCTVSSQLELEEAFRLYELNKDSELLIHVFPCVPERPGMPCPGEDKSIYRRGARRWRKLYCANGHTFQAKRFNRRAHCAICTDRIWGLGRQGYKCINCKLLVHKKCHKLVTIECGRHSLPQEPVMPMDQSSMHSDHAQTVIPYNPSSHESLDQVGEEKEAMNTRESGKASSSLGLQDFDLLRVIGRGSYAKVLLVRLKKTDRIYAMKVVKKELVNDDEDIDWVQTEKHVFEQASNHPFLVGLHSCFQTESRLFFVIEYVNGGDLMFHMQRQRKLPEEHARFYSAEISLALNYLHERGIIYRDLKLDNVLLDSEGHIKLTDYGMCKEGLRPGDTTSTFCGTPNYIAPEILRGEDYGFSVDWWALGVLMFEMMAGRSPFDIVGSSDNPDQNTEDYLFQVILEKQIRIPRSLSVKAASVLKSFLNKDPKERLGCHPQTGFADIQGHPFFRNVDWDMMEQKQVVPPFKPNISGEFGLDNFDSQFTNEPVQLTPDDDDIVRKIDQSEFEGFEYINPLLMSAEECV
How it was run: as §1

[31] = target: T31, MSSK1(h) (Homo sapiens, UniProt Q9UPE1); conditions: read-out: Inhibition(%) @ 1 µM RK-019
T31 construct: purchased Eurofins Discovery Services (KinaseProfiler)
How it was run: as §1

[32] = target: T32, IGF-1R(h), activated (Homo sapiens, UniProt P08069); conditions: read-out: Inhibition(%) @ 1 µM RK-019
T32 construct: purchased Eurofins Discovery Services (KinaseProfiler)
How it was run: as §1

[33] = target: T33, cKit(V560G)(h) (Homo sapiens, UniProt P10721, V560G); conditions: read-out: Inhibition(%) @ 1 µM RK-019
T33 construct: purchased Eurofins Discovery Services (KinaseProfiler)
How it was run: as §1

[34] = target: T34, SIK(h) (Homo sapiens, UniProt P57059); conditions: read-out: Inhibition(%) @ 1 µM RK-019
T34 construct: purchased Eurofins Discovery Services (KinaseProfiler)
How it was run: as §1

[35] = target: T35, PI3 Kinase (p110a(E542K)/p85a)(m) (Mus musculus, UniProt P42337, E542K); conditions: read-out: Inhibition(%) @ 1 µM RK-019
T35 construct: purchased Eurofins Discovery Services (KinaseProfiler)

[36] = target: T36, PKCγ(h) (Homo sapiens, UniProt P05129); conditions: read-out: Inhibition(%) @ 1 µM RK-019
T36 construct: purchased Eurofins Discovery Services (KinaseProfiler)
How it was run: as §1

COc1cc(OC)cc(N(CCN[C@H](C)CO)c2ccc3ncc(-c4cnn(C)c4)c(=O)n3c2)c1 [RK-019, (R)-7-((3,5-dimethoxyphenyl) (2-((1-hydroxypropan-2-yl)amino)ethyl)amino)-3-(1-methyl-1H-pyrazol-4-yl)-4H-pyrido [1,2-a]pyrimidin-4-one]
activity at 1 µM [1]: 94% | activity at 1 µM [2]: 101% | activity at 1 µM [3]: 89% | activity at 1 µM [4]: 83% | activity at 1 µM [5]: 124% | activity at 1 µM [6]: 90% | activity at 1 µM [7]: 99% | activity at 1 µM [8]: 107% | activity at 1 µM [9]: 96% | activity at 1 µM [10]: 95% | activity at 1 µM [11]: 105% | activity at 1 µM [12]: 85% | activity at 1 µM [13]: 94% | activity at 1 µM [14]: 136% | inhibition at 1 µM ([15]; LYN, 1 µM, read-out: inhibition (hit in panel)): > 90% | activity at 1 µM ([15]; Lyn(h), read-out: Inhibition(%) @ 1 µM RK-019): 6% | activity at 1 µM [16]: 91% | activity at 1 µM [17]: 111% | activity at 1 µM [18]: 108% | activity at 1 µM [19]: 95% | activity at 1 µM [20]: 117% | activity at 1 µM [21]: 83% | activity at 1 µM [22]: 110% | activity at 1 µM [23]: 50% | activity at 1 µM [24]: 94% | activity at 1 µM [25]: 89% | activity at 1 µM [26]: 30% | activity at 1 µM [27]: 85% | activity at 1 µM [28]: 119% | activity at 1 µM [29]: 108% | activity at 1 µM [30]: 100% | activity at 1 µM [31]: 135% | activity at 1 µM [32]: 101% | activity at 1 µM [33]: 14% | activity at 1 µM [34]: 89% | activity at 1 µM [35]: 99% | activity at 1 µM [36]: 92%
